Tests used:
[1] = target: T1, EGFR(L747-S752del, P753S) (Homo sapiens, UniProt P00533, DEL747-752/P753S); test: KINOMEscan; type: binding; details: read-out: % Ctrl
T1 construct: purchased DiscoveRx KINOMEscan

NHFB = test: Cell viability assay (sulforhodamine B); type: cell-based; details: Fibroblast; NHFB normal human fibroblasts, 72 h
Experimental: (§1) All biological reagents and solvents were obtained from commercial suppliers and used as recommended. The human NSCLC cell line H460 and P-gp-overexpressing drug-resistant cell line H460TaxR were cultured in RPMI-1640 medium supplemented with 10% fetal bovine serum, 100 units/ml penicillin and […] streptomycin. The NHFB cell line NHFB was cultured in DMEM with the same supplements. All cells were maintained in a 37 °C incubator with 95% humidity and 5% CO2.
(§2) The cell viability was determined using the sulforhodamine B assay.[64] In brief, cells (4000 cells in 100 μl medium) were seeded in 96-well culture plates and incubated for 24 h. The cells were treated with the compounds or with an equal volume (0.1%) of DMSO for 72 h. The cell viability was calculated using the following formula: cell viability=Atreatment/Acontrol. The EC50 values were determined using the Sigma Plot 10.0 software package (Systat Software Inc., San Jose, CA, USA).

KIT(V559D,V654A) = target: T2, KIT(V559D,V654A) (Homo sapiens, UniProt P10721, V559D/V654A); test: KINOMEscan; type: binding; details: read-out: % Ctrl
T2 construct: purchased DiscoveRx KINOMEscan

[2] = target: T3, ABL1(H396P)-phosphorylated (Homo sapiens, UniProt P00519, H396P); test: KINOMEscan; type: binding; details: read-out: % Ctrl
T3 construct: purchased DiscoveRx KINOMEscan

[3] = target: T4, ABL1(F317L)-phosphorylated (Homo sapiens, UniProt P00519, F317L); test: KINOMEscan; type: binding; details: read-out: % Ctrl
T4 construct: purchased DiscoveRx KINOMEscan

[4] = toxicity in xenografted mice; details: TBPT 30 or 60 mg/kg x5, PTX 10 mg/kg x4, i.v.
Experimental: Five injections of vehicle and TBPT (30 or 60 mg/kg) were administered intravenously at days 1, 3, 5, 7 and 9 (arrows). Four injections of PTX (10 mg/kg) were administered intravenously at days 1, 3, 5 and 7. (a) The tumor volume was measured every other day. When the tumor volume in the solvent-treated group exceeded 1500 mm^3, the experiment was terminated. (b) Blood biochemical and hematological analyses. (c) The body weights of the mice were monitored every other day during the experiments. *P<0.05, Student's t-test with day 0, N=5
Figure 3 Histopathological examination of the major organs from TBPT or PTX-treated mouse tumor at the end of the experiments. The cross-sections of organs were stained with hematoxylin–eosin. […] The scale bars represent 50 μm and are uniform in each column
H460 and H460TaxR cells (5 × 10^6 cells in 100 μl PBS) were injected subcutaneously into the dorsal flank of each mouse. When the tumors reached volumes of 100 mm^3, the mice were divided randomly into four groups. The mice were treated every other day five times with intravenous injections of (1) vehicle (the solvent of TBPT: 60% PBS, 8% Cremophor EL, 8% EtOH, 12% poly propylene glycol and 12% PEG-400), (2) TBPT (30 mg/kg) or (3) TBPT (60 mg/kg). Another group was treated with PTX (10 mg/kg) every other day four times as the positive control. The tumor dimensions and body weights were measured every other day. The tumor volume was calculated according to a standard formula: volume=width^2 × length/2. The experiment was terminated and the mice were killed when the tumor volumes in the solvent-treated group exceeded 1500 mm^3. The mouse organs and blood were collected and used for hematoxylin–eosin staining and serum chemistry assay. TGI rates were assessed using the following formula: TGI=1− (Tt−T0)/(Ct−C0) × 100%. Tt and T0 indicate the tumor volumes of the treated group at days t and 0. Ct and C0 indicate the tumor volumes of the control group at days t and 0, respectively.

LRRK2(G2019S) = target: T5, LRRK2(G2019S) (Homo sapiens, UniProt Q5S007, G2019S); test: KINOMEscan; type: binding; details: read-out: % Ctrl
T5 construct: purchased DiscoveRx KINOMEscan

MET(M1250T) = target: T6, MET(M1250T) (Homo sapiens, UniProt P08581, M1250T); test: KINOMEscan; type: binding; details: read-out: % Ctrl
T6 construct: purchased DiscoveRx KINOMEscan

[5] = target: T7, ABL1(Y253F)-phosphorylated (Homo sapiens, UniProt P00519, Y253F); test: KINOMEscan; type: binding; details: read-out: % Ctrl
T7 construct: purchased DiscoveRx KINOMEscan

EGFR(G719C) = target: T8, EGFR(G719C) (Homo sapiens, UniProt P00533, G719C); test: KINOMEscan; type: binding; details: read-out: % Ctrl
T8 construct: purchased DiscoveRx KINOMEscan

RET(V804L) = target: T9, RET(V804L) (Homo sapiens, UniProt P07949, V804L); test: KINOMEscan; type: binding; details: read-out: % Ctrl
T9 construct: purchased DiscoveRx KINOMEscan

RET(M918T) = target: T10, RET(M918T) (Homo sapiens, UniProt P07949, M918T); test: KINOMEscan; type: binding; details: read-out: % Ctrl
T10 construct: purchased DiscoveRx KINOMEscan

[6] = target: T11, EGFR(L747-E749del, A750P) (Homo sapiens, UniProt P00533, A750P/DEL747-749); test: KINOMEscan; type: binding; details: read-out: % Ctrl
T11 construct: purchased DiscoveRx KINOMEscan

caspases 8, 9 and 3/7 = test: Caspases activity assay in H460 cells; type: cell-based, human; details: H460, 2 μM, 6, 12 and 24 h
Experimental: The activities of caspases 8, 9, and 3/7 in H460TaxR and H460 cells were examined via a fluorescence-based assay using Caspase-Glo 8, Caspase-Glo 9 Assay kits and Apo-ONE Homogeneous Caspase-3/7 Assay Kit (Promega, Madison, WI, USA). Cells (1 × 10^6 cells in 10 ml medium) were seeded in 10-cm dishes. After 24 h, the cells were treated with TBPT (2 μM) or DMSO for 6, 12 and 24 h. Then, the cells were washed in PBS and collected. Cell lysates were prepared conventionally in RIPA lysis buffer. Protein concentrations were determined using the BCA protein assay. Equal amounts (10 μg) of total protein of samples were added to 96-well culture plates containing 100 μl caspases 8, 9 and 3/7 activity working solution. After the samples were incubated for 1 h at RT, the fluorescence of each well was determined at 499 nm with an emission wavelength of 521 nm using a multimode plate reader (Victor X2, Perkin Elmer, Boston, MA, USA). The fluorescence intensities are proportional to the activities of caspases 8, 9 and 3/7.

H460 = test: Cell viability assay (sulforhodamine B); type: cell-based, human; details: H460 cells, 72 h
Experimental: as §1, §2

H460TaxR = test: Cell viability assay (sulforhodamine B); type: cell-based, human; details: for EC50: Homo sapiens, H460/TaxR
Experimental: as §1, §2

KIT(V559D) = target: T12, KIT(V559D) (Homo sapiens, UniProt P10721, V559D); test: KINOMEscan; type: binding; details: read-out: % Ctrl
T12 construct: purchased DiscoveRx KINOMEscan
T12 sequence (P10721 26-976 V559D): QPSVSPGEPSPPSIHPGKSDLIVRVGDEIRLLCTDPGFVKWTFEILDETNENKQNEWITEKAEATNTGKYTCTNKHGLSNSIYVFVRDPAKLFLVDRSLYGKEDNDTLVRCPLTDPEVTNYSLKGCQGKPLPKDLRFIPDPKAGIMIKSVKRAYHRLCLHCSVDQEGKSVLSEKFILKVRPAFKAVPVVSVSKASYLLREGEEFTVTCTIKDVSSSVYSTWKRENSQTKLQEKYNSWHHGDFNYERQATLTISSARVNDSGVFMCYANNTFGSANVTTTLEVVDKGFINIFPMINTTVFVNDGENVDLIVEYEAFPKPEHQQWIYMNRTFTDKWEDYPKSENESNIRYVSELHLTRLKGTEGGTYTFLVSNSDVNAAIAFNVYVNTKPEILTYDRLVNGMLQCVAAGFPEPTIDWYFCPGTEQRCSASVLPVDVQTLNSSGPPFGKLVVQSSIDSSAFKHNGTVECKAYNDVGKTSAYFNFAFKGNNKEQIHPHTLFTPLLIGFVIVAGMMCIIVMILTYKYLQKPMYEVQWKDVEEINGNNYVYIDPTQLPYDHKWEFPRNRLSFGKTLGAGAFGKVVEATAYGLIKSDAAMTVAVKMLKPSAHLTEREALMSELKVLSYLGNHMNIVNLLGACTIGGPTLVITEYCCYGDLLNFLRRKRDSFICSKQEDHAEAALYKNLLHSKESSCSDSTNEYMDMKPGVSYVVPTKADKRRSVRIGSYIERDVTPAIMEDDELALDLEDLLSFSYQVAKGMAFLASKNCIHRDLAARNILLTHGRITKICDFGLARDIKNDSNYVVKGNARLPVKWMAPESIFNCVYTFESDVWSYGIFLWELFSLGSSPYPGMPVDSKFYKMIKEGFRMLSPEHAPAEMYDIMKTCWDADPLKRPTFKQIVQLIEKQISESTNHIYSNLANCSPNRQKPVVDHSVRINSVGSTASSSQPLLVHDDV

T9 sequence (P07949 29-1114 V804L): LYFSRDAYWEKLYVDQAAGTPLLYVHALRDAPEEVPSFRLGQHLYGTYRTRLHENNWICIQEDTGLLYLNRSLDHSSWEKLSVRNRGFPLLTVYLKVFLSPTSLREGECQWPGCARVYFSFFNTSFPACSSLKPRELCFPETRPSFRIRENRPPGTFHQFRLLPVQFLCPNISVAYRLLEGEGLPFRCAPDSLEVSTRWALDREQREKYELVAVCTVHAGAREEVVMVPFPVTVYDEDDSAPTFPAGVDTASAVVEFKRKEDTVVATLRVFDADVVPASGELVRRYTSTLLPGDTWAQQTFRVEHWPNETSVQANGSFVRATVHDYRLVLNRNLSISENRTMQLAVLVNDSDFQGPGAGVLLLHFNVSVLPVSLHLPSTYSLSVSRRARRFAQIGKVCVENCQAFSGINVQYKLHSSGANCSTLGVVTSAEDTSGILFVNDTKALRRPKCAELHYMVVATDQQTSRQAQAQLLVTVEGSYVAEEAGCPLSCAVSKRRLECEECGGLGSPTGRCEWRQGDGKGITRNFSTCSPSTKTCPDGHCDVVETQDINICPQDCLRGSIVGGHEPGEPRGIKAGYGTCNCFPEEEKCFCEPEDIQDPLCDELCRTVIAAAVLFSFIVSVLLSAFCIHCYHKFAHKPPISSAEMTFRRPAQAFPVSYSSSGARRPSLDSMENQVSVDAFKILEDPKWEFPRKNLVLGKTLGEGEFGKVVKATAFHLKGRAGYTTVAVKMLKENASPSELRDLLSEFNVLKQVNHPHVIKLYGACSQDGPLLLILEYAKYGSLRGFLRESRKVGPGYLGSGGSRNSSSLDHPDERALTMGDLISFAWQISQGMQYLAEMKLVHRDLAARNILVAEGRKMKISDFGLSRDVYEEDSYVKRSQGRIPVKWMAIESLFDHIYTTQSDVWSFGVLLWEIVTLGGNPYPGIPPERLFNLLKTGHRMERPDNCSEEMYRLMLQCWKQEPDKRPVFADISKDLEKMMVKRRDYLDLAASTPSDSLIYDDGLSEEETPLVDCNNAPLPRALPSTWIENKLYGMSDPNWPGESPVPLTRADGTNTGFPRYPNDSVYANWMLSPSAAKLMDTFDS
T10 sequence (P07949 29-1114 M918T): as the sequence (P07949 29-1114 V804L) above, with L776V, M890T counted along it
T8 sequence (P00533 25-1210 G719C): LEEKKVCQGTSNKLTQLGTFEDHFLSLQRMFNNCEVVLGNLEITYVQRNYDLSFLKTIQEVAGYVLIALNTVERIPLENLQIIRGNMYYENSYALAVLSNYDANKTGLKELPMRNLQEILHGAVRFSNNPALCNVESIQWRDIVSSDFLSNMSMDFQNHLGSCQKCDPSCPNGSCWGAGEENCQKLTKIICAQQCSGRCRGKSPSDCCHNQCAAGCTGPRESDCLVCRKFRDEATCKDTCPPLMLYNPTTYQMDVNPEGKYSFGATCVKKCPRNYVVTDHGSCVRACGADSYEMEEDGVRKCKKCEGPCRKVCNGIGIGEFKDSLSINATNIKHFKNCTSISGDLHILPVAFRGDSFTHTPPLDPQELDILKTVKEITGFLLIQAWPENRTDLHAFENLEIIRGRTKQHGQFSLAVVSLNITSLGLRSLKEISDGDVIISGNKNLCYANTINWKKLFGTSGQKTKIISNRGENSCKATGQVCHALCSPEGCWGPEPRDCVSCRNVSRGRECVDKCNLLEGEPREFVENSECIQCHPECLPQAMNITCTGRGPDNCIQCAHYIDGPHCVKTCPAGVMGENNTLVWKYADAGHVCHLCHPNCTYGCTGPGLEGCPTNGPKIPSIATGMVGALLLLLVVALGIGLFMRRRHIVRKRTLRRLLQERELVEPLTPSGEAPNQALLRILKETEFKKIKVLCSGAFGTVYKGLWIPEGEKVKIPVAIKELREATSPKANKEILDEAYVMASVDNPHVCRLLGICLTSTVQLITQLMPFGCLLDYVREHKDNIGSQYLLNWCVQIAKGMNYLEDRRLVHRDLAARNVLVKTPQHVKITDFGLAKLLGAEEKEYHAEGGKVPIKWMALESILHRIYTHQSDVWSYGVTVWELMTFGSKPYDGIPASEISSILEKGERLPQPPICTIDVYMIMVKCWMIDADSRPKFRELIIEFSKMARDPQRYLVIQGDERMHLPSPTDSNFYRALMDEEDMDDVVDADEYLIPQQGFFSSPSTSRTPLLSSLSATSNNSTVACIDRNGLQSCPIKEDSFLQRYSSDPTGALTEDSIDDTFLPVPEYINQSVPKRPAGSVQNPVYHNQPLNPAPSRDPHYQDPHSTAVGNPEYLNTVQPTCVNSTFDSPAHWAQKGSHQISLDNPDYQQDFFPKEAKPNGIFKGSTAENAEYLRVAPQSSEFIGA
T2 sequence (P10721 26-976 V559D/V654A): as the sequence (P10721 26-976 V559D) above, with V629A counted along it
T1 sequence (P00533 with tags, fused parts or gaps DEL747-752/P753S limits assumed): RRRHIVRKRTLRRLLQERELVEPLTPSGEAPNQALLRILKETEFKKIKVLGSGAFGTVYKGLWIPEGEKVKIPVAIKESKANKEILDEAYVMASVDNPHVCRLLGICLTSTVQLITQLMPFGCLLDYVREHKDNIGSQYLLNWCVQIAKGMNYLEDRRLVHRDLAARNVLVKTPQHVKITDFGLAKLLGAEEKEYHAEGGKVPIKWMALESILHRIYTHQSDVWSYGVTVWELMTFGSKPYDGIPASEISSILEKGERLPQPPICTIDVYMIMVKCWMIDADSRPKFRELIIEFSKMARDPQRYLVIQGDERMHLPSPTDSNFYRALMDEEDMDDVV
T11 sequence (P00533 with tags, fused parts or gaps DEL747-749/A750P limits assumed): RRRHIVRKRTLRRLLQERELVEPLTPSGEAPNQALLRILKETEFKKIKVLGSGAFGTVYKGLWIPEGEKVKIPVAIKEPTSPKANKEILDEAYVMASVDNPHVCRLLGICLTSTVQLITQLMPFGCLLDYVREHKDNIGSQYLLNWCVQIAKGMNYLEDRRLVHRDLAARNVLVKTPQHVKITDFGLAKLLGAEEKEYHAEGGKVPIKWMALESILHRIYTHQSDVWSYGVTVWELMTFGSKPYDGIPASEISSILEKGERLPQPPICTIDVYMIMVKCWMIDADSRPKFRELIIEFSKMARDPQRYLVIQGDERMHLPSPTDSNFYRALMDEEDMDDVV

Cc1ccc(C2=Nc3cccnc3S(=O)(=O)c3ccccc32)cc1 [TBPT, 6-(p-tolyl)benzo[f] pyrido[2,3-b][1,4] thiazepine 11,11-dioxide]
remaining binding at 5 µM ([1]; 5 μM): 76% | remaining binding at 10 µM ([1]; 10 μM): 91% | EC50 (NHFB): > 100000 nM | remaining binding at 5 µM (KIT(V559D,V654A); 5 μM): 97% | remaining binding at 10 µM (KIT(V559D,V654A); 10 μM): 90% | remaining binding at 5 µM ([2]; 5 μM): 68% | remaining binding at 10 µM ([2]; 10 μM): 92% | remaining binding at 5 µM ([3]; 5 μM): 72% | remaining binding at 10 µM ([3]; 10 μM): 98% | toxicity to normal tissues (blood biochemical and hematological analyses, body weight, relative organ weights) [4]: did not exhibit evident toxicity to normal tissues | remaining binding at 5 µM (LRRK2(G2019S); 5 μM): 86% | remaining binding at 10 µM (LRRK2(G2019S); 10 μM): 99% | remaining binding at 5 µM (MET(M1250T); 5 μM): 100% | remaining binding at 10 µM (MET(M1250T); 10 μM): 77% | remaining binding at 5 µM ([5]; 5 μM): 70% | remaining binding at 10 µM ([5]; 10 μM): 95% | remaining binding at 5 µM (EGFR(G719C); 5 μM): 73% | remaining binding at 10 µM (EGFR(G719C); 10 μM): 100% | remaining binding at 5 µM (RET(V804L); 5 μM): 100% | remaining binding at 10 µM (RET(V804L); 10 μM): 86% | remaining binding at 5 µM (RET(M918T); 5 μM): 99% | remaining binding at 10 µM (RET(M918T); 10 μM): 99% | remaining binding at 5 µM ([6]; 5 μM): 91% | remaining binding at 10 µM ([6]; 10 μM): 91% | activities of caspases 8, 9 and 3/7 (caspases 8, 9 and 3/7): activated caspases 8, 9 and 3/7 in a time-dependent manner | EC50 (H460): 450 ± 190 nM | EC50 (H460; Homo sapiens, NCI-H460, 72 h): < 500 nM | Resistance Folds (H460TaxR; EC50 in H460TaxR cells divided by EC50 in H460 cells): 1.3 | EC50 (H460TaxR; 72 h, H460TaxR cells): < 500 nM | EC50 (H460TaxR; H460TaxR(+Rev), Reversan (P-gp inhibitor)): 610 ± 260 nM | remaining binding at 5 µM (KIT(V559D); 5 μM): 72% | remaining binding at 10 µM (KIT(V559D); 10 μM): 91%

Reference: article PMC4823954, “From fighting depression to conquering tumors: a novel tricyclic thiazepine compound as a tubulin polymerization inhibitor” (Cell Death & Disease, 2016)
